Measured values as given in ChEMBL document CHEMBL1201862, “PubChem BioAssay data set” (2004).
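Values below derive from 48-hour exposures of cells grown in 96-well plates, with endpoints linearly interpolated between the two concentrations bracketing the appropriate inhibition level. Abbreviation: GI50, concentration required for 50% inhibition of growth.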 Active and inactive are the calls of the source. Rule as the data show it: active = GI50 up to about 1.1 µM and inactive = higher.

Legend:
Assay in all cases: inhibition of tumour cell growth, NCI panel, 48 h
NCI-H460 = system: NCI-H460
CAKI-1 = system: CAKI-1
K562 = system: K562
DMS-114 = system: DMS-114
UACC-62 = system: UACC-62
OVCAR-4 = system: OVCAR-4
SF-295 = system: SF-295
786-0 = system: 786-0
HL-60 = system: HL-60
HCC 2998 = system: HCC 2998
SK-MEL-2 = system: SK-MEL-2
M14 = system: M14
SF-539 = system: SF-539
KM12 = system: KM12
UACC-257 = system: UACC-257
UO-31 = system: UO-31
SK-OV-3 = system: SK-OV-3
LXFL 529 = system: LXFL 529
Malme-3M = system: Malme-3M

Measured: GI50

CCOC(=O)C1C(=O)CN2CCc3c([nH]c4ccccc34)C12C(=O)OCC (stereo unspecified)
inactive: NCI-H460 > 100 µM | CAKI-1 > 100 µM | K562 > 100 µM | DMS-114 > 100 µM | UACC-62 > 100 µM | OVCAR-4 > 100 µM | SF-295 > 100 µM | 786-0 > 100 µM | HL-60 > 100 µM | HCC 2998 > 100 µM | SK-MEL-2 > 100 µM | M14 > 100 µM | SF-539 > 100 µM | KM12 > 100 µM | UACC-257 > 100 µM | UO-31 > 100 µM | SK-OV-3 > 100 µM | LXFL 529 > 100 µM | Malme-3M > 100 µM

COc1cc(/C=C2/C(=O)N(C(=O)OC(C)C)C(Cc3cc(OC)c(OC)c(C)c3OC)C(=O)N2Cc2ccccc2)c(OC)c(C)c1OC (stereo unspecified)
inactive: NCI-H460 3.51 µM | CAKI-1 > 100 µM | K562 6.79 µM | DMS-114 13.6 µM | UACC-62 > 100 µM | OVCAR-4 20.9 µM | SF-295 68.7 µM | 786-0 > 100 µM | HL-60 3.52 µM | HCC 2998 38.4 µM | SK-MEL-2 27.1 µM | M14 50.9 µM | SF-539 > 100 µM | KM12 54.2 µM | UACC-257 7.94 µM | UO-31 9.06 µM | SK-OV-3 91.2 µM | LXFL 529 10.4 µM | Malme-3M 22.2 µM

CN(C)CC(/C(Cc1ccccc1)=N\NC(=O)C[n+]1ccccc1)c1ccccc1 (stereo unspecified)
inactive: NCI-H460 > 100 µM | CAKI-1 > 100 µM | K562 > 100 µM | DMS-114 > 100 µM | UACC-62 > 100 µM | OVCAR-4 > 100 µM | SF-295 > 100 µM | 786-0 > 100 µM | HL-60 > 100 µM | HCC 2998 > 100 µM | SK-MEL-2 > 100 µM | M14 > 100 µM | SF-539 > 100 µM | KM12 > 100 µM | UACC-257 > 100 µM | UO-31 > 100 µM | SK-OV-3 > 100 µM | LXFL 529 > 100 µM | Malme-3M > 100 µM

CC(C)CCCC(C)[C@H]1CCC2[C@@H]3CCC4Nc5c(cnn5-c5ccccc5)C[C@]4(C)C3CC[C@@]21C (stereo partly specified)
inactive: NCI-H460 14.1 µM | CAKI-1 5.11 µM | K562 28.1 µM | DMS-114 52.8 µM | UACC-62 8.05 µM | OVCAR-4 25.6 µM | SF-295 2.84 µM | 786-0 15.7 µM | HL-60 4.67 µM | HCC 2998 15.8 µM | SK-MEL-2 23.4 µM | M14 39.8 µM | SF-539 12.9 µM | KM12 29.6 µM | UACC-257 44.5 µM | UO-31 15 µM | SK-OV-3 48.5 µM | LXFL 529 24.3 µM | Malme-3M 28.7 µM
